Calls of active or inactive are those of the source.
Experiments:
[1] = HEK293 Cytotoxicity Assay Measured in Cell-Based System Using Plate Reader - 7071-01_Inhibitor_Dose_CherryPick_Activity_Set2.; format: functional
[2] = system: HEK293; experiment: viability loss in HEK293T cells – cell-based, ATP luminescence, cherry-pick samples, cytotoxicity control, dose response (AID 687005); format: functional; conditions: Homo sapiens;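 further: cells exposed to compound for 48 hours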
[3] = viability inhibitors of stage V gametocytes – luminescence, dose response (AID 1117278); format: functional, cell-based;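 further: gametocytes exposed to compound for 24 hours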
[4] = viability loss in human Jurkat cells – cell-based, luminescence, cytotoxicity control for P. falciparum gametocyte viability project, dose response (AID 1117277); format: functional;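 further: potency reflects loss of cellular ATP meaning fewer viable cells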
[5] = system: INS1; experiment: INS-1E survival protection against cytokine death – cell-based, luminescence, retest, dose response (AID 449756); format: functional; conditions: Rattus norvegicus;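 further: cell death triggered by IL-1 beta plus TNF-alpha plus IFN-gamma mixture; protective hits raise ATP signal compared with cytokine alone wells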
[6] = target: T1, Calpain-2 catalytic subunit (Sus scrofa, UniProt P43367); experiment: m-calpain protease blockers, concentration series – biochemical, fluorogenic peptide substrate, dose response (AID 1420); format: functional
T1 sequence (P43367 whole entry): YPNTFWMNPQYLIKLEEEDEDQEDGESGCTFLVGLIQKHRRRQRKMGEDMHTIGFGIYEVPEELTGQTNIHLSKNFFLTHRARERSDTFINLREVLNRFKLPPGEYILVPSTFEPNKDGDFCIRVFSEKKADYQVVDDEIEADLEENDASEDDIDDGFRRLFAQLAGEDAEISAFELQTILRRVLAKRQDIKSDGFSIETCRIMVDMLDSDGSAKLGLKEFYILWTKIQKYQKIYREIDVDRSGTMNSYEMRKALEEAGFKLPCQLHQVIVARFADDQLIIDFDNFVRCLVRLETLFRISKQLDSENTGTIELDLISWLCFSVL

[7] = target: T2, ORF 73 (Human herpesvirus 8, UniProt O40947); experiment: KSHV LANA DNA-binding disruption – biochemical, fluorescence polarization, cherry-picked samples, dose response (AID 504725); parameters: species or system Human gammaherpesvirus 8;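 further: fluorescence polarization of a labeled DNA duplex reporting LANA DNA binding; potency is for inhibitors that block LANA binding to the DNA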
T2 sequence (O40947 whole entry): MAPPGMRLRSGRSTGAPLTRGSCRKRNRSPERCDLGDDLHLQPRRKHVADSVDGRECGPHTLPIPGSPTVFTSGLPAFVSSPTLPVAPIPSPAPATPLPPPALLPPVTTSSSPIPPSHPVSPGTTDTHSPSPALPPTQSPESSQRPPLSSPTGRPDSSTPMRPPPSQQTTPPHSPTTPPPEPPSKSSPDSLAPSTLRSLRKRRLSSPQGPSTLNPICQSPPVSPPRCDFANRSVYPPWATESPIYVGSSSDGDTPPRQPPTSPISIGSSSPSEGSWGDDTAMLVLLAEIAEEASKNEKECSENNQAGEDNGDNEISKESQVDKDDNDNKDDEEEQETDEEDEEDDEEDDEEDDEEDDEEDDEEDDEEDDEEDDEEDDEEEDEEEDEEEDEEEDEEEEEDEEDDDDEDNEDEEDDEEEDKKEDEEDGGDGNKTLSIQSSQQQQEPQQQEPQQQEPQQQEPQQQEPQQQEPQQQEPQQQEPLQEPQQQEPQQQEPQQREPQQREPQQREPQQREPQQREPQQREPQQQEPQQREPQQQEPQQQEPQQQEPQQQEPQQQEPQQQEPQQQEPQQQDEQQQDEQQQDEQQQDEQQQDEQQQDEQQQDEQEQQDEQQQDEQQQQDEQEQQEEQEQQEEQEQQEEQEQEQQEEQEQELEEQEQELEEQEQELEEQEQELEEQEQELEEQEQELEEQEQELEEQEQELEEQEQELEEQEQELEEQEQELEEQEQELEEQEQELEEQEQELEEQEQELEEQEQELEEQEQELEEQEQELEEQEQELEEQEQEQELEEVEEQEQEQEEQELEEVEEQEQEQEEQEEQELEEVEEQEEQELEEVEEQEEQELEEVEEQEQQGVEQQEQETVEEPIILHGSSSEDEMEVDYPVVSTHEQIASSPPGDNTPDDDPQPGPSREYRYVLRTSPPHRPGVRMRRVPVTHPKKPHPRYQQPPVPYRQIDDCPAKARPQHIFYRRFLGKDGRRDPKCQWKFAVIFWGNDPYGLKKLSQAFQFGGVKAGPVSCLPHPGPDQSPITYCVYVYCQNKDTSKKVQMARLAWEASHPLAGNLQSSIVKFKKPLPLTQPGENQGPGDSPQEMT

[8] = target: Induced myeloid leukemia cell differentiation protein Mcl-1 (Homo sapiens, UniProt Q07820); format: functional
Sequence of Induced myeloid leukemia cell differentiation protein Mcl-1 (Q07820 whole entry): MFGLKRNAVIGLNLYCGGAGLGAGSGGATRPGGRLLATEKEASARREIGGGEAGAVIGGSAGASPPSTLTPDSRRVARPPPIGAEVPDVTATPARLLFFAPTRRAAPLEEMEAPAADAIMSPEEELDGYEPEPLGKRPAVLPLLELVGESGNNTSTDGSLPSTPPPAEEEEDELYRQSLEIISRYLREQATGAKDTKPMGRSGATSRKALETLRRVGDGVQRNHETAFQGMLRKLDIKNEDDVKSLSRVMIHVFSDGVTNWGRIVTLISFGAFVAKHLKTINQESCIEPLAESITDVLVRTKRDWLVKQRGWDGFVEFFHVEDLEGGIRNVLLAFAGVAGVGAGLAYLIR

[9] = viability loss in THP-1 monocytes – THP-1 cells, cytotoxicity control for Vif-APOBEC3G degradation inhibitor project, dose response (AID 1117359); format: functional; conditions: THP-1
[10] = target: Eukaryotic translation initiation factor 4E (Mus musculus, UniProt P63073); experiment: blockers of eIF4G binding by eIF4E – biochemical, TR-FRET, dose response (AID 855); format: functional;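 further: potency for disrupting eIF4E binding to eIF4GI seen as loss of FRET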
Sequence of Eukaryotic translation initiation factor 4E (P63073 whole entry): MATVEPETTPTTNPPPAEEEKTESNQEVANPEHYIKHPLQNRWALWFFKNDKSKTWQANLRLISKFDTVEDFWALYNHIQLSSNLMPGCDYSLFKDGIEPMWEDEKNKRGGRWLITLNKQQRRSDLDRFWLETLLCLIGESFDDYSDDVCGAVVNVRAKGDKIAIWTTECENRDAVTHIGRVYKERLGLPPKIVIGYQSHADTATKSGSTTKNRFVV

[11] = target: T3, Small ubiquitin-related modifier 1 (Homo sapiens, UniProt P63165); experiment: SUMO1 protein-protein binding blockers, potency – biochemical, FRET, dose response (AID 624383); format: functional; conditions: read-out: IC50_Mean
T3 sequence (P63165 whole entry): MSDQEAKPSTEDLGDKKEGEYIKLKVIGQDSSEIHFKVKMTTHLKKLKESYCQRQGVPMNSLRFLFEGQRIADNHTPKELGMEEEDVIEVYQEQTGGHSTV

[12] = target: T4, Histone-lysine N-methyltransferase NSD2 (Homo sapiens, UniProt O96028); format: biochemical
T4 sequence (O96028 whole entry): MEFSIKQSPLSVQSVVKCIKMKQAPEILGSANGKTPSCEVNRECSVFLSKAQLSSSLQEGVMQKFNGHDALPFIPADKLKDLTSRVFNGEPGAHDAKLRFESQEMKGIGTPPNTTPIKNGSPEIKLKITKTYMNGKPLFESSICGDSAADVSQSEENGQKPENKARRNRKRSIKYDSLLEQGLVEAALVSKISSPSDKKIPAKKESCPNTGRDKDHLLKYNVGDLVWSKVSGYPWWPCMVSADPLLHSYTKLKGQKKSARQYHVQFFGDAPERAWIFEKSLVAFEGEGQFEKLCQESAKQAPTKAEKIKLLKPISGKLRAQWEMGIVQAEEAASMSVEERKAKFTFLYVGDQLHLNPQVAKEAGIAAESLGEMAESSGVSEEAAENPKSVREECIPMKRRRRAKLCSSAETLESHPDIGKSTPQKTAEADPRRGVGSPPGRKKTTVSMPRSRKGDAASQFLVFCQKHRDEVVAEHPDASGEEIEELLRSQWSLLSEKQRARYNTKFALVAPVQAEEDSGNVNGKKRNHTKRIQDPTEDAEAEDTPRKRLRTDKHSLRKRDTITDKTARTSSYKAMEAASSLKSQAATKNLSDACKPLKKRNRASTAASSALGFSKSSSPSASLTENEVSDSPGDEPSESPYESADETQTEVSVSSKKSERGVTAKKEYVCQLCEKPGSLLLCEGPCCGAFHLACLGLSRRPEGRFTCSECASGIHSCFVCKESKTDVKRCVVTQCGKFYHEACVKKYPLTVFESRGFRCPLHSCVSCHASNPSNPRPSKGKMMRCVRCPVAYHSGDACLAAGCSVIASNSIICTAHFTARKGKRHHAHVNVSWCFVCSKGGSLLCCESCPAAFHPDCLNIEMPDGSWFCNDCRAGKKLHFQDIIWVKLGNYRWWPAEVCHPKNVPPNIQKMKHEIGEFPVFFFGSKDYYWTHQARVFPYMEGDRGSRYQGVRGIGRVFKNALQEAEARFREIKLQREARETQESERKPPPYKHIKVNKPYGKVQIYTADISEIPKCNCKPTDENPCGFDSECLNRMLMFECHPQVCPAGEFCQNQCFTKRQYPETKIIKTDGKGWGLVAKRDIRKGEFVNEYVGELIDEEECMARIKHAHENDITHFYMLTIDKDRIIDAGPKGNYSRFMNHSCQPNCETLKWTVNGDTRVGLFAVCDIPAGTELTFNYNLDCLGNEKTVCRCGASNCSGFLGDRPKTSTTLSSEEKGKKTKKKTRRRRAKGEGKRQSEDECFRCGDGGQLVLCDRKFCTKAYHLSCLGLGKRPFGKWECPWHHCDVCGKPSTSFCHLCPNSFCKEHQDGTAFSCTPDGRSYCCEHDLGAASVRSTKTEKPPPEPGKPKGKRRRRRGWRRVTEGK

[13] = target: T3, Small ubiquitin-related modifier 1; experiment: SUMO1 protein interaction blockers, potency – biochemical, fluorescence polarization, uHTS hits, dose response (AID 624382); format: functional; conditions: read-out: IC50_Mean
[14] = target: T5, Rac GTPase-activating protein 1 (Homo sapiens, UniProt Q9H0H5); experiment: blockers of MgcRacGAP-driven Rac1 GTP hydrolysis – biochemical, ADP Hunter fluorescence, primary and confirmatory, confirmation (AID 624330); format: functional
T5 sequence (Q9H0H5 whole entry): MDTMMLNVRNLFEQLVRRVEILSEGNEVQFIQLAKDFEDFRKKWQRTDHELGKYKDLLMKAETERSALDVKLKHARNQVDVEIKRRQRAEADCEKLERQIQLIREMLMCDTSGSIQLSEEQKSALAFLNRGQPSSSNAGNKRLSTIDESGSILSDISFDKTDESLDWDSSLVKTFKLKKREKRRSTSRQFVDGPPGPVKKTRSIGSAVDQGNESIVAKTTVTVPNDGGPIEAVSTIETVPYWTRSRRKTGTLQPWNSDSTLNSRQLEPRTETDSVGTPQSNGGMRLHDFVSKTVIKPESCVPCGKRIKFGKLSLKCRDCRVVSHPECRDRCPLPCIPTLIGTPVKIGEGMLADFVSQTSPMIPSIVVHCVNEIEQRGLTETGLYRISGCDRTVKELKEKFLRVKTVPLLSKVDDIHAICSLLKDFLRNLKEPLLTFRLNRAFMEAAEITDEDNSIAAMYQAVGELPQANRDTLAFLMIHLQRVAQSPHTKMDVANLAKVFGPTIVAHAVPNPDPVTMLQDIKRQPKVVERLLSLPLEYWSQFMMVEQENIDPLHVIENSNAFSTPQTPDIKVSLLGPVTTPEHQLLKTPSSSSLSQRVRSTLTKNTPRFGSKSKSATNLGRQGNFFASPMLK

Compound	AC50 [1]	AC50 [2]	IC50 [3]	IC50 [4]	further results
COC(=O)C1=C(C)N(Cc2ccccc2)C(=O)N[C@H]1c1cccc(F)c1	24.6 µM (active)	24.6 µM (active)	–	–	–
Cc1ccc(-c2csc3nc(CN(C)Cc4ccccc4)nc(O)c23)cc1	–	–	> 109 µM (inactive)	> 83.2 µM (inactive)	–
O=C(CN1CC[n+]2c(-c3cccs3)csc21)c1ccc(-c2ccccc2)cc1	–	–	> 109 µM (inactive)	> 83.3 µM (inactive)	AC50 [5]: 2.39 µM (active); IC50 [6]: 22.1 µM (not active)
N#Cc1c(SCC(N)=O)nc2c(c1-c1ccncc1)CCCC2	–	–	> 109 µM (inactive)	> 83.3 µM (inactive)	–
CSc1ccc(/C=N/Nc2cccc(C(=O)O)c2)cc1	–	–	–	–	AC50 [7]: 19.8 µM (active); IC50 [8]: 2.19 µM (active); CC50 [9]: > 40 µM (active); IC50 [10]: 50 µM (inactive); IC50 [11]: 6.71 µM (active); AC50 [12]: 2.93 µM (active); IC50 [13]: > 66.6 µM (inactive); IC50 [14]: 83.5 µM (active)
C[C@@H]1CN([C@H](C)CO)S(=O)(=O)c2ccc(C#Cc3ccccn3)cc2O[C@H]1CN(C)Cc1ccccc1	5.16 µM (active)	5.16 µM (active)	–	–	–
